In US5075287A, “Muramyl peptide derivatives and immunoregulating compositions containing them” (priority 1989, dated 1991):
Read-outs that look alike come from different tables or passages of the source.

Experiments:
[1] = test system: L-1210 mouse leukemia cells; assay: Activation of macrophages (growth inhibition of tumor cells by intraperitoneal macrophages of treated mice, MTT assay); format: cell-based; conditions: macrophages taken 3 days after i.p. 0.2 ml of 500 μg/ml, macrophage:L-1210 20:1, 72 hours
Method: A compound of the present invention was dissolved in lipidmicrosphere to obtain a solution in a concentration of 500μg/ml, and 0.2 ml of such solution was intraperitoneally administered to each mouse in one group consisting of seven female CDF1 mice. Intraperitoneal macrophages obtained three days after the administration and L-1210 mouse leukemia cells were mixed in the ratio of cell numbers of 20:1, respectively. Two hundred μl of the mixture was placed in each well of one sheet of 96 well microtiter plate. After 72 hours, the increase of the cell number in each well was determined by a MTT assay method. The ratio of the cell number for the mixture of the L-1210 cells and the macrophage relative to the cell number for the L-1210 cells only(growth inhibitory ratio) was determined, and the results are shown in Table 3.

[2] = test system: influenza HA vaccine (B/Nagasaki/1/87 strain); format: in vivo, female CDF1 mice
[3] = test system: hepatitis B virus surface antigen (HBs); assay: Hepatitis-vaccine enhancing activity (adjuvant activity): anti-HBs IgG in mouse serum by ELISA; format: in vivo, female CDF1 mice
Method: A compound of the present invention was dissolved in lipidmicrosphere (1 mg/ml). On the other hand, a solution of hepatitis B virus surface antigen (HBs) in physiological saline was prepared (50 μg/ml). The above solutions in equal amounts were mixed to prepare a test solution. A control solution was prepared by the exclusion of the compound of the present invention from said test solution. A mixture of a suspension of aluminium hydroxide gel in physiological saline (1 mg/ml) and said hepatitis vaccine preparation in equal amounts was prepared as another control solution. The test solution (0.2 ml) was intraperitoneally administered to each mouse in one group consisting of seven female CDF1 mice.
Blood samples were collected from the fundus ocluli vein of each mouse every week after the administration and then centrifuged to obtain serums. Three weeks after the administration, 0.2 ml of the test liquid was intraperitoneally administered again to each mouse for secondary stimulation. Then blood collecting was conducted every week to obtain serums after the application of the secondary stimulation, in the same manner as that described above.
The amount of the IgG antibodies against the hepatitis B virus surface antigens (HBs) in the serums thus obtained was determined with an ELISA method.

[4] = Experiment 1, 1 W after i.p. administration, 5000-fold dilution, compound in lipidmicrosphere + HA vaccine
[5] = Experiment 1, 2 W, 5000-fold dilution
[6] = Experiment 1, 3 W, 5000-fold dilution
[7] = Experiment 1, 4 W (after secondary stimulation at 3 weeks), 5000-fold dilution
[8] = Experiment 1, 5 W (after secondary stimulation at 3 weeks), 5000-fold dilution
[9] = Experiment 1, 1 W after i.p. administration, 5000-fold dilution, compound in lipidmicrosphere + HBs
[10] = Experiment 2, 1 W, 8000-fold dilution
[11] = Experiment 2, 2 W, 8000-fold dilution
[12] = Experiment 2, 3 W, 8000-fold dilution
[13] = Experiment 2, 4 W (after secondary stimulation at 3 weeks), 8000-fold dilution
[14] = Experiment 2, 5 W (after secondary stimulation at 3 weeks), 8000-fold dilution
[15] = Experiment 2, 1 W, 2000-fold dilution
[16] = Experiment 2, 2 W, 2000-fold dilution
[17] = Experiment 2, 3 W, 2000-fold dilution
[18] = Experiment 2, 4 W (after secondary stimulation at 3 weeks), 2000-fold dilution
[19] = Experiment 2, 5 W (after secondary stimulation at 3 weeks), 2000-fold dilution

Row | Structure (SMILES) | Growth inhibitory ratio of L-1210 mouse leukemia cells [1] [%] | Anti HA serum antigen value (average value ± S.D.) [2, 4] [O.D 415 nm] | Anti HA serum antigen value (average value ± S.D.) [2, 5] [O.D 415 nm] | Anti HA serum antigen value (average value ± S.D.) [2, 6] [O.D 415 nm] | Anti HA serum antigen value (average value ± S.D.) [2, 7] [O.D 415 nm] | Anti HA serum antigen value (average value ± S.D.) [2, 8] [O.D 415 nm] | Anti-HBs IgG antibody level in serum (ELISA absorbance at 415 nm) [3, 9] [O.D 415 nm] | Anti-HBs IgG antibody level in serum (ELISA absorbance at 415 nm) [3, 5] [O.D 415 nm] | Anti-HBs IgG antibody level in serum (ELISA absorbance at 415 nm) [3, 6] [O.D 415 nm] | Anti-HBs IgG antibody level in serum (ELISA absorbance at 415 nm) [3, 7] [O.D 415 nm] | Anti HA serum antigen value (average value ± S.D.) [2, 10] [O.D 415 nm] | Anti HA serum antigen value (average value ± S.D.) [2, 11] [O.D 415 nm] | Anti HA serum antigen value (average value ± S.D.) [2, 12] [O.D 415 nm] | Anti HA serum antigen value (average value ± S.D.) [2, 13] [O.D 415 nm] | Anti HA serum antigen value (average value ± S.D.) [2, 14] [O.D 415 nm] | Anti-HBs IgG antibody level in serum (ELISA absorbance at 415 nm) [3, 15] [O.D 415 nm] | Anti-HBs IgG antibody level in serum (ELISA absorbance at 415 nm) [3, 16] [O.D 415 nm] | Anti-HBs IgG antibody level in serum (ELISA absorbance at 415 nm) [3, 17] [O.D 415 nm] | Anti-HBs IgG antibody level in serum (ELISA absorbance at 415 nm) [3, 18] [O.D 415 nm] | Anti-HBs IgG antibody level in serum (ELISA absorbance at 415 nm) [3, 19] [O.D 415 nm] | other results
1 | CCCCCCCCCCCCCCC(CCCCCCCCCCCCCC)C(=O)O[C@H]1O[C@H](CO)[C@@H](O)[C@H](O[C@H](C)C(=O)N[C@@H](C)C(=O)N[C@H](CCC(=O)OC)C(N)=O)[C@H]1NC(C)=O [Example 1] | 40.0 | 0.007 ± 0.003 | 0.174 ± 0.003 | 0.232 ± 0.003 | 1.243 ± 0.036 | 1.201 ± 0.002 | 0.001 ± 0.001 | 0.018 ± 0.000 | 0.074 ± 0.002 | 0.815 ± 0.011 | – | – | – | – | – | – | – | – | – | – | Anti-HBs IgG antibody level in serum (ELISA absorbance at 415 nm) [3, 8]: 0.843 ± 0.005 O.D 415 nm
2 | CCCCCCCCCCCCCCC(CCCCCCCCCCCCCC)C(=O)S[C@@H]1O[C@H](CO)[C@@H](O)[C@H](O[C@H](C)C(=O)N[C@@H](C)C(=O)N[C@H](CCC(=O)OC)C(N)=O)[C@H]1NC(C)=O [Example 2] | 41.3 | 0.003 ± 0.001 | 0.172 ± 0.004 | 0.420 ± 0.005 | 0.447 ± 0.029 | 1.418 ± 0.035 | 0 | 0.023 ± 0.000 | 0.076 ± 0.001 | 0.975 ± 0.008 | – | – | – | – | – | – | – | – | – | – | Anti-HBs IgG antibody level in serum (ELISA absorbance at 415 nm) [3, 8]: 0.930 ± 0.004 O.D 415 nm
3 | CCCCCCCCCCCCCC(=O)O[C@H](CCCCCCCCCCC)CC(=O)O[C@H]1O[C@H](CO)[C@@H](O)[C@H](O[C@H](C)C(=O)N[C@@H](C)C(=O)N[C@H](CCC(=O)OC)C(N)=O)[C@H]1NC(C)=O [Example 3, N-[2-0-{2-Acetamido-2,3-dideoxy-1-0-((3R)-3-tetradecanoyloxytetradecanoyl)-α-D-glucopyranos-3-yl}-D-lactoyl]-L-alanyl-D-isoglutamine methylester] | 42.6 | 0.009 ± 0.000 | 0.182 ± 0.003 | 0.292 ± 0.004 | 0.122 ± 0.020 | 1.140 ± 0.013 | 0 | 0.027 ± 0.001 | 0.064 ± 0.003 | 0.631 ± 0.006 | – | – | – | – | – | – | – | – | – | – | Anti-HBs IgG antibody level in serum (ELISA absorbance at 415 nm) [3, 8]: 0.692 ± 0.009 O.D 415 nm
4 | CCCCCCCCCCCCCC(=O)O[C@H](CCCCCCCCCCC)CC(=O)O[C@H]1O[C@H](CO)[C@@H](O)[C@H](O[C@H](C)C(=O)N[C@@H](C)C(=O)N[C@H](CCC(=O)OC)C(N)=O)[C@H]1NC(C)=O [Example 25, N-[2-0-{2-Acetamido-2,3-dideoxy-1-0-((3R)-3-tetradecanoyloxytetradecanoyl}-α-D-glucopyranos-3-yl}-D-lactoyl]-L-alanyl-D-isoglutamine methylester] | – | – | – | – | – | – | – | – | – | – | 0.009 ± 0.001 | 0.109 ± 0.002 | 0.149 ± 0.004 | 0.623 ± 0.019 | 0.719 ± 0.021 | 0.004 ± 0.002 | 0.021 ± 0.001 | 0.031 ± 0.004 | 0.402 ± 0.011 | 0.434 ± 0.021 | –
5 | CCCCCCCCCCCCCCCCCC(=O)OC[C@H]1O[C@H](OC(=O)C[C@@H](CCCCCCCCCCC)OC(=O)CCCCCCCCCCCCC)[C@H](NC(C)=O)[C@@H](O[C@H](C)C(=O)N[C@@H](C)C(=O)N[C@H](CCC(=O)OC)C(N)=O)[C@@H]1O [Example 26, N-[2-0-{2-Acetamido-2,3-dideoxy-6-0-octadecanoyl-1-0-((3R)-3-tetradecanoyloxytetradecanoyl)-α-D-glucopyranos-3-yl}-D-lactoyl]-L-alanyl-D-isogluatmine methylester] | – | – | – | – | – | – | – | – | – | – | 0.004 ± 0.003 | 0.038 ± 0.001 | 0.054 ± 0.001 | 0.208 ± 0.001 | 0.206 ± 0.002 | 0.001 ± 0.006 | 0.015 ± 0.006 | 0.032 ± 0.008 | 0.192 ± 0.002 | 0.163 ± 0.004 | –
6 | CCCCCCCCCCCCCCCCCCCCCCCC(=O)O[C@H](CCCCCCCCCCC)CC(=O)S[C@@H]1O[C@H](CO)[C@@H](O)[C@H](O[C@H](C)C(=O)N[C@@H](C)C(=O)N[C@H](CCC(=O)OC)C(N)=O)[C@H]1NC(C)=O [Example 27, N-[2-0-{2-Acetamido-2,3-dideoxy-1-S-((3R)-3-tetracosanoyloxytetradecanoyl)-1-thio-β-D-glucopyranos-3-yl}-D-lactoyl]-L-alanyl-D-isoglutamine methylester] | – | – | – | – | – | – | – | – | – | – | 0 | 0.110 ± 0.003 | 0.161 ± 0.003 | 0.751 ± 0.004 | 0.805 ± 0.008 | 0.003 ± 0.003 | 0.031 ± 0.002 | 0.052 ± 0.000 | 0.580 ± 0.016 | 0.573 ± 0.013 | –
7 | CCCCCCCCCCCCCCCCCCCCCCCC(=O)O[C@H](CCCCCCCCCCC)CC(=O)S[C@@H]1O[C@H](COC(=O)CCCCCCCCCCCCCCCCC)[C@@H](O)[C@H](O[C@H](C)C(=O)N[C@@H](C)C(=O)N[C@H](CCC(=O)OC)C(N)=O)[C@H]1NC(C)=O [Example 28, N-[2-0-{2-Acetamido-2,3-dideoxy-6-0-octadecanoyl-1-S-((3R}-3-tetracosanoyloxytetradecanoyl)-1-thio-β-D-glucopyranos-3-Yl}-D-lactoyl]-L-alanyl-D-isoglutamine methylester] | – | – | – | – | – | – | – | – | – | – | 0.008 ± 0.004 | 0.041 ± 0.004 | 0.061 ± 0.001 | 0.787 ± 0.018 | 0.779 ± 0.024 | 0.005 ± 0.003 | 0.062 ± 0.004 | 0.086 ± 0.004 | 0.611 ± 0.018 | 0.543 ± 0.029 | –
